pIC50: −log10 of the molar value.
How the values were obtained:
human αVβ6 = target: T1, human αVβ6 (Homo sapiens, UniProt P06756+P18564); assay: human αVβ6 HTRF binding assay
T1 construct: purchased R & D systems 3817-AV
Outline: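 HTRF binding format with biotinylated integrin, FITC-fibronectin and streptavidin-terbium, run in 20 mM Tris pH 7.4, 1 mM MgCl2, 1 mM MnCl2, 0.01% Tween 20, 0.01% BSA. A SPA-based binding assay was an alternative.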

human αVβ1 = human αVβ1 (Homo sapiens, UniProt P05556+P06756); assay: human αVβ1 HTRF binding assay
Method: (§1) All binding assays used the HTRF (homogeneous time resolved fluorescence) technology from Cisbio International, therefore all assays are described as HTRF binding assays. The assay results for the Examples are listed above together with the characterization data. The HTRF binding assays are established for the following integrins: human αVβ6, human αVβ1, human αVβ3, human αVβ5, and human αVβ8. All assays used the following assay buffer: 20 mM Tris, pH 7.4, 1 mM MgCl2, 1 mM MnCl2, 0.01% Tween 20, and 0.01% BSA. Alternatively, a SPA-based assay was used for evaluation of receptor binding.
(§2) […]

human αVβ3 = human αVβ3 (Homo sapiens, UniProt P05106+P06756); assay: human αVβ3 HTRF binding assay; settings: read-out: Human αVβ3 IC50
Method: as §1, §2

human αVβ5 = human αVβ5 (Homo sapiens, UniProt P06756+P18084); assay: human αVβ5 HTRF binding assay
Method: as §1, with “binding. […]” for “binding.”

human αVβ8 = human αVβ8 (Homo sapiens, UniProt P06756+P26012); assay: human αVβ8 HTRF binding assay
Method: as §1, with “binding. […]” for “binding.”

Chain of human αVβ5 (P06756 31-992 limits assumed): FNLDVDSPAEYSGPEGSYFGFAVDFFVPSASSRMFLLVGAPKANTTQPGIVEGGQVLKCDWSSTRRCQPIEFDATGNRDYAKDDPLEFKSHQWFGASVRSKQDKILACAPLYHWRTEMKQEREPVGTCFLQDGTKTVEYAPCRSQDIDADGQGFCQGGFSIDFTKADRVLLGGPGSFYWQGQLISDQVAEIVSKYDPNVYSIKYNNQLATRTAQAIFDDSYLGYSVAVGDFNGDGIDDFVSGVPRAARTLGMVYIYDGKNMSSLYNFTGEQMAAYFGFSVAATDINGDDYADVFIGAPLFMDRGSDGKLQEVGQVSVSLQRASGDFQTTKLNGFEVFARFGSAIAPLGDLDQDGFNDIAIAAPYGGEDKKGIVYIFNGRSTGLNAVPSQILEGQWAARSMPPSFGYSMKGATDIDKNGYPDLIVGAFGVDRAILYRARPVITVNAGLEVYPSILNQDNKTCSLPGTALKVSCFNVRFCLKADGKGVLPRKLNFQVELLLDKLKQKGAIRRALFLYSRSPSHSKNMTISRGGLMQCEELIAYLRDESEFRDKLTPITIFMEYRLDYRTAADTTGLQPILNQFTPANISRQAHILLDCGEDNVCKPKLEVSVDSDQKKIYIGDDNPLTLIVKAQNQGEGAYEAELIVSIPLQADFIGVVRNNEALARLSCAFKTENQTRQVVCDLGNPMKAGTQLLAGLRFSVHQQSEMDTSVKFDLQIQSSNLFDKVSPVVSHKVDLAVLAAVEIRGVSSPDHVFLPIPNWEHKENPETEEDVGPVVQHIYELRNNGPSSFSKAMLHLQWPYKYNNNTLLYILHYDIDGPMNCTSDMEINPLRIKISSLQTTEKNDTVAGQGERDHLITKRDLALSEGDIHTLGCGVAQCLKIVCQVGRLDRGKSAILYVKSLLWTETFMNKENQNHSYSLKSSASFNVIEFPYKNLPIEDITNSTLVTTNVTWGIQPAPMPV
Chain of human αVβ5 (P18084 24-719 limits assumed): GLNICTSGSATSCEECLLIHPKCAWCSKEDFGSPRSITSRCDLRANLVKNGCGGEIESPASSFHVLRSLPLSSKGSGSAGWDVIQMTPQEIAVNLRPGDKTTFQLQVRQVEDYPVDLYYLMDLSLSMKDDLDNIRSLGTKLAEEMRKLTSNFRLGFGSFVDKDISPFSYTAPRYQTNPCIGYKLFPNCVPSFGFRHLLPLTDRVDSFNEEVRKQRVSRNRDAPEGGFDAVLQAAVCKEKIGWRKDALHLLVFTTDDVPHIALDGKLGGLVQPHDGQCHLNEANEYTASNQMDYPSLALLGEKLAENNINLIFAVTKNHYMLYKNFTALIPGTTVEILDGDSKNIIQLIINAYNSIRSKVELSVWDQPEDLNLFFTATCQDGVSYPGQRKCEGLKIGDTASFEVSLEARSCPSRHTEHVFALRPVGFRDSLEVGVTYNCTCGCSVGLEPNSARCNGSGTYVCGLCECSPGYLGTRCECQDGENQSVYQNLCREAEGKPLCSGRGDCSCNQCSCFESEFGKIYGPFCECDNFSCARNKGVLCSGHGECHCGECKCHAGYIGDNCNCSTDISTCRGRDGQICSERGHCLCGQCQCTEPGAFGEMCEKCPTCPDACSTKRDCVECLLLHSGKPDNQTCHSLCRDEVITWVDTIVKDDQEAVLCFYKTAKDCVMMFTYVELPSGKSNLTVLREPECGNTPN
T1 sequence (P06756 31-992 limits assumed): as the sequence (P06756 31-992 limits assumed) above
T1 sequence (P18564 22-707 limits assumed): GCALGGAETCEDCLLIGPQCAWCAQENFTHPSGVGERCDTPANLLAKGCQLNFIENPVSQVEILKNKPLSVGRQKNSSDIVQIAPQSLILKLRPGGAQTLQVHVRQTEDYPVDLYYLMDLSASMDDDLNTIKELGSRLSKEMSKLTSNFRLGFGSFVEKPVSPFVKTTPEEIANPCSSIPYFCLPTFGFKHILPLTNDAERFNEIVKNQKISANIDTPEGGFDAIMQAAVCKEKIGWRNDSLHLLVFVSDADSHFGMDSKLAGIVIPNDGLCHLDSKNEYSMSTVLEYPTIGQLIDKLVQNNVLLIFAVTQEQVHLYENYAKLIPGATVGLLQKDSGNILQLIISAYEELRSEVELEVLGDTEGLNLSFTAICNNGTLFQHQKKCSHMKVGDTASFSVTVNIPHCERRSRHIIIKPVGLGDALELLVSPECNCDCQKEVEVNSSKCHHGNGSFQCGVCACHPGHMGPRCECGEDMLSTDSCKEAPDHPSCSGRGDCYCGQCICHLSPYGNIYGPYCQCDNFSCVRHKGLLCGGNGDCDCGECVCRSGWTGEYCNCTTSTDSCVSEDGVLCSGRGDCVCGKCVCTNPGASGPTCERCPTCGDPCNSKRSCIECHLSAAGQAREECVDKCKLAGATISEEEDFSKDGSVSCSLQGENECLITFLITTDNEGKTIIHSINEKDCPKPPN
Chain of human αVβ1 (P06756 31-992 limits assumed): as the sequence (P06756 31-992 limits assumed) above
Chain of human αVβ1 (P05556 21-728 limits assumed): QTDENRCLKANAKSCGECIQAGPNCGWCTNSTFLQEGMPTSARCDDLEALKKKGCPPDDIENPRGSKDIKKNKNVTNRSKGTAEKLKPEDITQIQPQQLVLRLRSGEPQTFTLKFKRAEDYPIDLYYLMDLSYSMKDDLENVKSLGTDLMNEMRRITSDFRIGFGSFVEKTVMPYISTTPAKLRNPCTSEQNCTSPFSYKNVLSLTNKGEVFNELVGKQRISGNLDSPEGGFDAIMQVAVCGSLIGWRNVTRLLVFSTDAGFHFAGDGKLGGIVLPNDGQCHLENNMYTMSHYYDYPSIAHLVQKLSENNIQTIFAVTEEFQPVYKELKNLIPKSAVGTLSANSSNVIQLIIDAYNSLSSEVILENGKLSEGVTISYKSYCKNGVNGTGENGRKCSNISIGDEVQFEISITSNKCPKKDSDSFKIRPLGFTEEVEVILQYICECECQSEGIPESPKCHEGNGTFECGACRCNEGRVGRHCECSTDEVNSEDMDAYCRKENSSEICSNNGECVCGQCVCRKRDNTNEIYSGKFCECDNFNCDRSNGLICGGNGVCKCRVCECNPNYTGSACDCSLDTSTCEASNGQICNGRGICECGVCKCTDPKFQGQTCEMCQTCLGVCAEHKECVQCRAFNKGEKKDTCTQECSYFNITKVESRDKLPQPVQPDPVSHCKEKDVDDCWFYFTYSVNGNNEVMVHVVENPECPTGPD
Chain of human αVβ8 (P06756 31-992 limits assumed): as the sequence (P06756 31-992 limits assumed) above
Chain of human αVβ8 (P26012 43-684 limits assumed): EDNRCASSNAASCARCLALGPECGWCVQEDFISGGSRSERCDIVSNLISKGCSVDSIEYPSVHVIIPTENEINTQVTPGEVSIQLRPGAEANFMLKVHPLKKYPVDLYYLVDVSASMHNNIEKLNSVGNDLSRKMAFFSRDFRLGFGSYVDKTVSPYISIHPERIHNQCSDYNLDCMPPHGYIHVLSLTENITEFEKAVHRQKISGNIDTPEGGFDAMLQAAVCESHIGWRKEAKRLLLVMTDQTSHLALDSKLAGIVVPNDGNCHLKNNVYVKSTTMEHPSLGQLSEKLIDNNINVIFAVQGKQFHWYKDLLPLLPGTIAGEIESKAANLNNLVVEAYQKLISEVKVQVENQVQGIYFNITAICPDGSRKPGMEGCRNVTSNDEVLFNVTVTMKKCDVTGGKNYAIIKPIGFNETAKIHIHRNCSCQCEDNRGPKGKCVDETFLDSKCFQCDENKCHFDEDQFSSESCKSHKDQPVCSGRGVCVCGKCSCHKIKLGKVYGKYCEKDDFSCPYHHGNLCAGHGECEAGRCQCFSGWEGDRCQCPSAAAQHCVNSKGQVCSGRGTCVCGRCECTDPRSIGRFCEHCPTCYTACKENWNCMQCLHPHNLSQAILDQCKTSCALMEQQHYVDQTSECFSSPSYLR
Chain of human αVβ3 (P06756 31-992 limits assumed): as the sequence (P06756 31-992 limits assumed) above
Chain of human αVβ3 (P05106 27-718 limits assumed): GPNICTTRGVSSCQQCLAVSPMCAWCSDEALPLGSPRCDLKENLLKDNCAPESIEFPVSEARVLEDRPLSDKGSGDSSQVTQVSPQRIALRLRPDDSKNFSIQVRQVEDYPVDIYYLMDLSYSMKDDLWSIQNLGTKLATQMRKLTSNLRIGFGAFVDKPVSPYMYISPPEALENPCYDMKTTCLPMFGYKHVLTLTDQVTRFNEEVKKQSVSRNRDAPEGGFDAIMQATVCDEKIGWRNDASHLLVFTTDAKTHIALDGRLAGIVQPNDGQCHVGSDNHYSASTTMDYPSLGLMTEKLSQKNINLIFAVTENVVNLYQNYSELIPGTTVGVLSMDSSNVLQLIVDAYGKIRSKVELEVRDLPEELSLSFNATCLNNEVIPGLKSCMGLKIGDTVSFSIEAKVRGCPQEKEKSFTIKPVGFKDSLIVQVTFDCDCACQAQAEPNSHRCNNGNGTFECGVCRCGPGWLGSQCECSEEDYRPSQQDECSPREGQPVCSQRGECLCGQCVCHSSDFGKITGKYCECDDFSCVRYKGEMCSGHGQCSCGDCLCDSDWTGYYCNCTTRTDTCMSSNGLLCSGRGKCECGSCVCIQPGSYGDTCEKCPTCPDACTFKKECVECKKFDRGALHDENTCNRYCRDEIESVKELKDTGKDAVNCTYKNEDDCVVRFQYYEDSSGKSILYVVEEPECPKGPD

| Structure (SMILES) | pIC50 (human αVβ6) | pIC50 (human αVβ1) | pIC50 (human αVβ3) | pIC50 (human αVβ5) | pIC50 (human αVβ8) |
| --- | --- | --- | --- | --- | --- |
| Cc1cc(C)c(S(=O)(=O)N[C@@H](CNC(=O)c2cnn(CCc3ccc4c(n3)NCCC4)c2)C(=O)O)c(C)c1 [Example 10, (S)-3-(1-(2-(5,6,7,8-Tetrahydro-1,8-naphthyridin-2-yl)ethyl)-1H-pyrazole-4-carboxamido)-2-((2,4,6-trimethylphenyl)sulfonamido)propanoic acid] | 9.30 | 8.20 | 8.72 | 9.70 | 7.85 |
| CCCCOC(=O)N[C@@H](CNC(=O)c1cnn(CCc2ccc3c(n2)NCCC3)c1)C(=O)O [Example 20, (S)-2-((Butoxycarbonyl)amino)-3-(1-(2-(5,6,7,8-tetrahydro-1,8-naphthyridin-2-yl)ethyl)-1H-pyrazole-4-carboxamido)propanoic acid] | 8.96 | 7.57 | 8.74 | 9.70 | 7.07 |
| Cc1cc(C)c(S(=O)(=O)N[C@@H](CNC(=O)c2cn(CCc3ccc4c(n3)NCCC4)nn2)C(=O)O)c(C)c1 [Example 111] | 9.10 | 7.34 | 8.19 | 8.96 | 7.20 |
| Cc1cc(C)c(S(=O)(=O)N[C@@H](CNC(=O)c2ccn(CCc3ccc4c(n3)NCCC4)n2)C(=O)O)c(C)c1 [Example 112] | 9.00 | 7.35 | 8.70 | 9.40 | 6.94 |
| Cc1cc(C)c(S(=O)(=O)N[C@@H](CNC(=O)c2cnn(CCc3ccc4c(n3)NCCC4)n2)C(=O)O)c(C)c1 [Example 113] | 8.89 | 6.95 | 8.52 | 9.52 | 7.24 |
| Cc1cc(C)c(S(=O)(=O)N[C@@H](CNC(=O)c2ccn(CCc3ccc4c(n3)NCCC4)c2)C(=O)O)c(C)c1 [Example 119] | 9.30 | 8.20 | 8.82 | 9.70 | 7.51 |
| O=C(N[C@H](CNC(=O)c1cn(CCc2ccc3c(n2)NCCC3)cn1)C(=O)O)OCc1ccccc1 [Example 121] | 8.64 | 7.11 | 8.80 | 9.52 | 6.61 |
| Cc1cc(C)c(S(=O)(=O)N[C@@H](CNC(=O)c2ncn(CCc3ccc4c(n3)NCCC4)n2)C(=O)O)c(C)c1 [Example 123] | 8.70 | 6.90 | 8.68 | 6.04 | 6.82 |

Reference: patent US10851098B2, “Azole amides and amines as alpha v integrin inhibitors” (BRISTOL-MYERS SQUIBB COMPANY, priority 2016, dated 2020)
